# Laboratory results taken from patent US20060189581A1, “Compounds and methods for treating transplant rejection” (AtheroGenics, Inc., priority 1997, published 2006).
# Entries after “also recorded” stand apart in the source; their conditions may differ. Read-outs that look alike come from different tables or passages of the source.
# Experiments:
# [1] = system: ACI rat aorta transplanted into Lewis rat (graft arteriosclerosis); assay: Rat aortic allograft model (graft arteriosclerosis); format: in vivo
# Description: Compound A was evaluated for graft arteriosclerosis resulting from aortic heterotropic transplantation. This is a model of graft arteriopathy which is the major obstacle to long term success of solid organ transplantation.
# Donor descending aortas from ACI rats were heterotypically transplanted into Lewis rat abdomens in end-to-end fashion with minimal ischemic time. 55 rats were assigned to five groups as follows:
# (§1) Compound A was administered subcutaneously to recipient animals three days prior to the surgery and once daily for 90 days thereafter. […] Thereafter, the dose was reduced to 30 mg/kg/d for 6 days and then further reduced to 5 mg/kg/d for the remainder of the study.
# (§2) On day 90, the allograft segment was removed, fixed in 10% buffered formalin and paraffin embedded. Sections were stained with von Geisson's elastic stain, and intima-to-media area (IM) ratio and percent luminal narrowing (% LN) were assessed by digital morphometry (See FIGS. 1 and 2). Blood was collected at regular intervals throughout the study and plasma evaluated for compound levels (See FIG. 3).
# [2] = Plasma compound levels in the rat aortic allograft study; format: in vivo; conditions: Lewis, subcutaneous, after 90 days of dosing, read-out: trough plasma levels
# Description: as §1, §2
smiles,measurement,setting,value
"CC(C)(Sc1cc(C(C)(C)C)c(O)c(C(C)(C)C)c1)Sc1cc(C(C)(C)C)c(OCCCC(=O)O)c(C(C)(C)C)c1 [Compound A, 4-[4-[[1-[[3,5-bis(1,1-dimethylethyl)-4-hydroxyphenyl]thio]-1-methylethyl]thio]-2,6-bis(1,1-dimethylethyl)phenoxy]butyric acid]",IM ratio and % LN compared to the vehicle group,"[1]; 20 mg and 40/30/5 mg/kg/d doses, day 90",significantly lower
same,efficacy and gross toxicity,[1]; 20 mg/kg/d subcutaneously,efficacious without grossly discernable toxic side effects
same,"adverse findings (body weight, skin)","[1]; 40 mg/kg/d subcutaneously, until the dose was reduced",failure to gain weight and skin irritation; also recorded: initially lost weight
same,inhibition of aortic neointimal growth,"[1]; 10, 20 and 40/30/5 mg/kg/d subcutaneously, 90 days",dose-dependent inhibition
same,tolerability of treatment,"[1]; 10 and 20 mg/kg/d subcutaneously, animals regained weight post surgery",well tolerated
same,percent inhibition of the % LN (percent luminal narrowing),"[1]; 40/30/5 mg/kg/d subcutaneously, day 90, compared to vehicle control",52%
same,concentration at 90 days,[2]; 10 mg/kg/d subcutaneously,10 µM
same,concentration at 90 days,[2]; 20 mg/kg/d subcutaneously,18 µM
same,concentration at 90 days,[2]; 40/30/5 mg/kg/d subcutaneously,28 µM
